Measurements: patent publication US7858647B2, “N-[1,3,4]-thiadiazol-2-yl-benzene sulfonamides, pharmaceutical compositions thereof and methods for their therapeutic use” (Sanofi-Aventis, priority 2005, dated 2010)

Biological target: T1, human PPARgamma (Homo sapiens, UniProt P37231)
T1 construct: amino acids I152-Y475; expressed in transfected cells; host or cells: HEK cells (transient transfection of pcDNA3-GAL4-humanPPARgammaLBD)
T1 sequence (P37231 182-477 isoform P37231-2 limits assumed): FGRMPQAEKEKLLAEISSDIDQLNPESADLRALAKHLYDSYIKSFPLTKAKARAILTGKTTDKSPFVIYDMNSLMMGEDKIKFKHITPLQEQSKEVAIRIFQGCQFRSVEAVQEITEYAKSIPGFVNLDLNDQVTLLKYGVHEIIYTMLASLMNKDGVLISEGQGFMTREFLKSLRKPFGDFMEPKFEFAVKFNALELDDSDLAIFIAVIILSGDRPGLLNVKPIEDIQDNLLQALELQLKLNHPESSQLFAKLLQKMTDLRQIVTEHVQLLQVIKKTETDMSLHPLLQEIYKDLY
Assay: Cellular PPARgamma assay (luciferase reporter, transiently transfected HEK cells)
Type: cell-based
Conditions: GAL4-humanPPARgammaLBD
Description: A transient transfection system is employed to determine the cellular PPARgamma activity of PPAR agonists. It is based on the use of a luciferase reporter plasmid (pGL3basic-5×GAL4-TK) and of a PPARgamma expression plasmid (pcDNA3-GAL4-humanPPARgammaLBD). Both plasmids are transiently transfected into human embryonic kidney cells (HEK cells). There is then expression in these cells of the fusion protein GAL4-humanPPARgammaLBD which binds to the GAL4 binding sites of the reporter plasmid. In the presence of a PPARgamma-active ligand, the activated fusion protein GAL4-humanPPARgammaLBD induces expression of the luciferase reporter gene, which can be detected in the form of a chemiluminescence signal after addition of a luciferase substrate. As a difference from the stably transfected PPARalpha reporter cell line, in the cellular PPARgamma assay the two components (luciferase reporter plasmid and PPARgamma expression plasmid) are transiently transfected into HEK cells because stable and permanent expression of the PPARgamma fusion protein is cytotoxic.
The luciferase reporter plasmid pGL3basic-5×GAL4-TK is based on the vector pGL3basic from Promega. The reporter plasmid is prepared by cloning five binding sites of the yeast transcription factor GAL4 (each binding site with the sequence 5′-CTCGGAGGACAGTACTCCG-3′), together with a 160 bp-long thymidine kinase promoter section (Genbank Accession #AF027128) 5′-upstream into pGL3basic. 3′-downstream of the thymidine kinase promoter is the complete luciferase gene from Photinus pyralis (Genbank Accession #M15077) which is already a constituent of the plasmid pGL3basic used. The cloning and sequencing of the reporter plasmid pGL3basic-5×GAL4-TK took place in analogy to the description in Sambrook J. et. al. (Molecular cloning, Cold Spring Harbor Laboratory Press, 1989).
The PPARgamma expression plasmid pcDNA3-GAL4-humanPPARgammaLBD was prepared by first cloning the cDNA coding for amino acids 1-147 of the yeast transcription factor GAL4 (Genbank Accession #P04386) into the plasmid pcDNA3 (from Invitrogen) 3′-downstream of the cytomegalovirus promoter. Subsequently, the cDNA of the ligand-binding domain (LBD) of the human PPARgamma receptor (amino acids I152-Y475; Accession #g1480099) 3′-downstream of the GAL4 DNA binding domain. Cloning and sequencing of the PPARgamma expression plasmid pcDNA3-GAL4-humanPPARgammaLBD again took place in analogy to the description in Sambrook J. et. al. (Molecular cloning, Cold Spring Harbor Laboratory Press, 1989). Besides the luciferase reporter plasmid pGL3basic-5×GAL4-TK and the PPARgamma expression plasmid pcDNA3-GAL4-humanPPARgammaLBD, also used for the cellular PPARgamma assay are the reference plasmid pRL-CMV (from Promega) and the plasmid pBluescript SK(+) from Stratagene. All four plasmids were prepared using a plasmid preparation kit from Qiagen, which ensured a plasmid quality with a minimal endotoxin content, before transfection into HEK cells.
The activity of PPARgamma agonists is determined in a 4-day assay which is described below. Before the transfection, HEK cells are cultivated in DMEM (#41965-039, Invitrogen) which is mixed with the following additions: 10% FCS (#16000-044, Invitrogen), 1% penicillin-streptomycin solution (#15140-122, Invitrogen) and 2 mM L-glutamine (#25030-024, Invitrogen).
Firstly, solution A, a transfection mixture which contains all four plasmids previously described in addition to DMEM, is prepared. The following amounts are used to make up 3 ml of solution A for each 96 well microtiter plate for an assay: 2622 μl of antibiotic- and serum-free DMEM (#41965-039, Invitrogen), 100 μl of reference plasmid pRL-CMV (1 ng/μl), 100 μl of luciferase reporter plasmid pGL3basic-5×GAL4-TK (10 ng/μl), 100 μl of PPARgamma expression plasmid pcDNA3-GAL4-humanPPARgammaLBD (100 ng/μl) and 78 μl of plasmid pBluescript SK(+) (500 ng/μl). […]

Row | EC50 | Compound
1 | 30 nM | CCOc1cc(C(F)(F)F)ccc1C(=O)NCC(CC)c1ccc(S(=O)(=O)Nc2nnc(C(C)C)s2)cc1 (single isomer, unassigned) [Example 44a]
2 | 1530 nM | CC(C)c1nnc(NS(=O)(=O)c2ccc(CNC(=O)c3ccc(C(F)(F)F)cc3)cc2)s1 [Example 24, N-[4-(5-Isopropyl-[1,3,4]thiadiazol-2-ylsulfamoyl)-benzyl]-4-trifluoromethyl-benzamide]
3 | 10 nM | CCOc1cc(C(F)(F)F)ccc1C(=O)NCC(CC)c1ccc(S(=O)(=O)Nc2nnc(C(C)C)s2)cc1 (single isomer, unassigned) [Example 44b]
4 | 4870 nM | Cc1ccc(Cl)cc1C(=O)NCCc1ccc(S(=O)(=O)Nc2nnc(-c3ccccc3)s2)cc1 [Example 32, 5-Chloro-2-methyl-N-{2-[4-(5-phenyl-[1,3,4]thiadiazol-2-ylsulfamoyl)-phenyl]-ethyl}-benzamide]
5 | 70 nM | CCOc1cc(C(F)(F)F)ccc1C(=O)NCC(C)c1ccc(S(=O)(=O)Nc2nnc(C(C)C)s2)cc1 (single isomer, unassigned) [Example 43a]
6 | 90 nM | CCOc1cc(C(F)(F)F)ccc1C(=O)NCC(C)c1ccc(S(=O)(=O)Nc2nnc(C(C)C)s2)cc1 (racemic) [Example 43, 2-Ethoxy-N-{2-[4-(5-isopropyl-[1,3,4]thiadiazol-2-ylsulfamoyl)-phenyl]-propyl}-4-trifluoromethyl-benzamide]
7 | 1870 nM | Cc1cc(Br)c(C(=O)NCCc2ccc(S(=O)(=O)Nc3nnc(C(C)C)s3)cc2)s1 [Example 47, 3-Bromo-5-methyl-thiophene-2-carboxylic acid {2-[4-(5-isopropyl-[1,3,4]thiadiazol-2-ylsulfamoyl)-phenyl]-ethyl}-amide]
8 | 380 nM | COc1cc(C(F)(F)F)ccc1C(=O)NCCc1ccc(S(=O)(=O)Nc2nnc(C(C)C)s2)cc1 [Example 1, N-{2-[4-(5-Isopropyl-[1,3,4]thiadiazol-2-ylsulfamoyl)-phenyl]-ethyl}-2-methoxy-4-trifluoromethyl-benzamide]
9 | 180 nM | COc1ccc(C(C)(C)C)cc1C(=O)NCCc1ccc(S(=O)(=O)Nc2nnc(C(C)C)s2)cc1 [Example 2, 5-tert-Butyl-N-{2-[4-(5-isopropyl-[1,3,4]thiadiazol-2-ylsulfamoyl)-phenyl]-ethyl}-2-methoxy-benzamide]
10 | 1110 nM | COc1ccc(C(=O)NCCc2ccc(S(=O)(=O)Nc3nnc(C(C)C)s3)cc2)c(OC)n1 [Example 5, N-{2-[4-(5-Isopropyl-[1,3,4]thiadiazol-2-ylsulfamoyl)-phenyl]-ethyl}-2,6-dimethoxy-nicotinamide]
11 | 270 nM | CC(C)(C)c1nnc(NS(=O)(=O)c2ccc(CCNC(=O)c3cc(Cl)ccc3Cl)cc2)s1 [Example 35, N-{2-[4-(5-tert-Butyl-[1,3,4]thiadiazol-2-ylsulfamoyl)-phenyl]-ethyl}-2,5-dichloro-benzamide]
12 | 70 nM | CCOc1cc(C(F)(F)F)ccc1C(=O)NCC(C)c1ccc(S(=O)(=O)Nc2nnc(C(C)C)s2)cc1 (single isomer, unassigned) [Example 43b]
